Patent publication US7459480B2, “Benzodioxepine derivatives” (Hoffmann-La Roche Inc., priority 2003, dated 2008)

What follows are compounds tested against T1, human ACCβ (Homo sapiens, UniProt O00763) (assay: Radiometric ACCβ enzyme inhibition assay ([14C]NaHCO3 incorporation into malonyl-CoA)). Conditions: human muscle-type ACCβ expressed in HEK293 cells; saturating substrate concentrations; 37° C., 45 min.
T1 construct: The cloning of the full length human muscle-type ACCβ cDNA and expression in HEK293 cells; made in house; host or cells: HEK293 cells (ATCC CRL-1573), transfected with plasmid pRF33D
Type: biochemical
Procedure: Production and Characterization of Human ACCβ Enzyme, Its Use in ACC Activity Assays and for Inhibition Studies
The cloning of the full length human muscle-type ACCβ cDNA and expression in HEK293 cells (ATCC, # CRL-1573) was performed as follows. The ACCβ cDNA was amplified by the polymerase chain reaction (PCR) and was cloned using standard recombinant DNA techniques. The PCR reaction was performed with the Expand Long Template PCR System (Roche Molecular Biochemicals, # 1 681 8340) and 0.5 ng of cDNA from human skeletal muscle as template. The primers used for PCR amplification were designed on the basis of the published sequence of the human ACCβ cDNA isolated from a human liver cDNA library (Abul-Elheiga et al. J. Biol. Chem. 272, 10669-10677, 1997). The sequence of the forward primer ACCB1 was 5′-[…]-3′; it includes a NheI restriction cleavage site for subcloning and a Kozak translation initiation consensus sequence preceding the ATG start codon. The sequence of the reverse primer ACCB8 was 5′-[…]-3′; it includes a stop codon and a XhoI restriction cleavage site for subcloning. The amplified DNA fragment of approximately 7.4 kb was cloned into a mammalian expression vector. The resulting plasmid isolates, pRF33A, B, C, D, and E were individually transfected in human embryonic kidney 293 cells (HEK293) using a standard lipid transfection method. Cell extracts of transfected cells were prepared in a lysis buffer containing 0.4 mg/ml digitonin and enzyme activity was determined using a radiometric ACC activity assay as described below. Plasmid pRF33D gave the highest activity and was chosen for large scale transfections of HEK293 cells and enzyme purification.
Since ACC enzyme activities in crude cell lysates were very low, enrichment of ACCβ enzyme expressed in HEK293 cells was achieved by a single anion exchange chromatography step. Cell lysates were run over a 5 ml Econo Pac High Q column (Bio-Rad, # 732-0027). Bound proteins were eluted by a gradient of NaCl from 0 to 1 M in 50 mM Tris-HCl, pH 7.5, 1 mM DTT, 5% glycerol. Fractions containing high ACCβ enzyme activity were pooled and stored at −20° C.
Standard ACCβ enzyme assays, in a total volume of 100 μl, contained 50 mM HEPES-KOH, pH 7.5, 10 mM K-citrate, 10 mM MgSO4, 1 mM ATP, 0.1 mM DTT, 2% DMSO, 0.1 mg/ml fatty acid-free BSA, 0.2 mM acetyl-CoA, 2 mM KHCO3, 0.2 mM [^14C]NaHCO3 (50-60 mCi/mmol) and cell lysate or purified ACCβ enzyme. Reactions were incubated at 37° C. for 45 min. and stopped by the addition of 50 μl of 2 N HCl. Terminated reactions were incubated at 50° C. over night to evaporate non-incorporated [^14C]NaHCO3. [^14C]-labeled malonyl-CoA reaction product was quantitated by liquid scintillation counting after the addition of 20 μl of Microscint 20 (Canberra Packard, # 6013621) on a TopCount NXT microplate scintillation counter (Canberra Packard).
Inhibition of ACCβ activity was determined at saturating substrate concentrations with two-fold serial dilutions of test compounds spanning a concentration range of at least two log units. IC50 values were calculated with the GraFit software (Erithacus Software Ltd.).

T1 sequence (O00763 whole entry): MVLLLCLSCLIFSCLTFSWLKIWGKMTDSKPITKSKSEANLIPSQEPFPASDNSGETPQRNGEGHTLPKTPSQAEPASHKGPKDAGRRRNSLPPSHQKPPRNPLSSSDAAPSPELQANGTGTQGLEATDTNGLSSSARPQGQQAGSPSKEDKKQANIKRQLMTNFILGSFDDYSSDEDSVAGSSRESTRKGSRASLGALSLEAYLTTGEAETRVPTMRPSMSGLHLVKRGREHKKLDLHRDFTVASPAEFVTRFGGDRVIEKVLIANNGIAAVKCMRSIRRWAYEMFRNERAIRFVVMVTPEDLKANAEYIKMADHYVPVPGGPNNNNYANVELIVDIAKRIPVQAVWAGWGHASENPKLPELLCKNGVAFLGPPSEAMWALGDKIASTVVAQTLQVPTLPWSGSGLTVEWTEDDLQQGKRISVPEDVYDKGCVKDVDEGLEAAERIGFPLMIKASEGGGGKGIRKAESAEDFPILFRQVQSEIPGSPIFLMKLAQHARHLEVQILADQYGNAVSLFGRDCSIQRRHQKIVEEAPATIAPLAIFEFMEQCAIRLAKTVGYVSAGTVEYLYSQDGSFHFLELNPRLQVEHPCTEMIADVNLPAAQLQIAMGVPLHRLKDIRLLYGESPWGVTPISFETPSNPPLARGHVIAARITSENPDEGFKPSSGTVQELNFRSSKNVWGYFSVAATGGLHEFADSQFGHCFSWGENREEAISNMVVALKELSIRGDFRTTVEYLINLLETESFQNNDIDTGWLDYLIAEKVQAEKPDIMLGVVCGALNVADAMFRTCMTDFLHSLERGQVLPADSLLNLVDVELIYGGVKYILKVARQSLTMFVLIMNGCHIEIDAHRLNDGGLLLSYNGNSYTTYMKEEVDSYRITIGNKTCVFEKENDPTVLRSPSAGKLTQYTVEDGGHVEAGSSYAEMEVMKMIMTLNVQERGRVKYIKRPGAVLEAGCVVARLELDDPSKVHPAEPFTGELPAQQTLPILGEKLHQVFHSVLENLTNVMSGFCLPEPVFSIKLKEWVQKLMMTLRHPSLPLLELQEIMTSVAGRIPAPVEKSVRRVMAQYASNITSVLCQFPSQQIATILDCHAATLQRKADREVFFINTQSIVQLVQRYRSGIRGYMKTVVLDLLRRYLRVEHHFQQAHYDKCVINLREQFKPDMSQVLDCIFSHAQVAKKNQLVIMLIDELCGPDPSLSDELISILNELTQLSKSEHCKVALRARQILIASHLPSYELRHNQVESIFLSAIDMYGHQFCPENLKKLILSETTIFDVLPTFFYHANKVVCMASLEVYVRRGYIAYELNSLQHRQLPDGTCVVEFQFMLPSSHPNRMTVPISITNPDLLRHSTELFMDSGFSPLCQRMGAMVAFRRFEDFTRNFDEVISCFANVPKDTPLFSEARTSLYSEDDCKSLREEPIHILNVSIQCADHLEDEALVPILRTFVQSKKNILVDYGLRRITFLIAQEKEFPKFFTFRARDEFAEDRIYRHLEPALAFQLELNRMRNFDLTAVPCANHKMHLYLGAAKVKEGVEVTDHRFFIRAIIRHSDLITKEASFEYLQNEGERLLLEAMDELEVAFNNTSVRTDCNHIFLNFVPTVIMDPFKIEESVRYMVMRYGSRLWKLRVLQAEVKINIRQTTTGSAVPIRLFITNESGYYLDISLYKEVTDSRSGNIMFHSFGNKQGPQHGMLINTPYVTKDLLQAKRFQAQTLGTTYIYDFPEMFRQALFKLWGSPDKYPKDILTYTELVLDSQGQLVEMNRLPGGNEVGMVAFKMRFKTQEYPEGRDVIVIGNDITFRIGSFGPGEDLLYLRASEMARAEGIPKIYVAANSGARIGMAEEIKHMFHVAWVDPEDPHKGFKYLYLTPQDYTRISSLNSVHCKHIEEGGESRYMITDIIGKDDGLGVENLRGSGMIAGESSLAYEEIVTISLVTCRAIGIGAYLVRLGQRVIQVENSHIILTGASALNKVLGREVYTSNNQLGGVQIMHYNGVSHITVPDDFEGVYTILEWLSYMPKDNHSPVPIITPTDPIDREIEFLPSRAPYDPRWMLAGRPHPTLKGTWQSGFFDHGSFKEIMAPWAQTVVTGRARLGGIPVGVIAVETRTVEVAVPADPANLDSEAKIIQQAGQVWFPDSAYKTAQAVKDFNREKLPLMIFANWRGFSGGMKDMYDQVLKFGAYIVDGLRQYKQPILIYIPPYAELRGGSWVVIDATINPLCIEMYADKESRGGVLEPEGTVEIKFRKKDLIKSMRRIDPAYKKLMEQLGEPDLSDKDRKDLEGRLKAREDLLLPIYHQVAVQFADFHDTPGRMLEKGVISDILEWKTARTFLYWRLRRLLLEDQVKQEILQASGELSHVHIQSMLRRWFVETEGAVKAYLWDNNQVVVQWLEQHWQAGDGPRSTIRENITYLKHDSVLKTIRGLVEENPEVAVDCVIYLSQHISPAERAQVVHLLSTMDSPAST

| SMILES | IC50 |
| --- | --- |
| CC1(C)COc2ccc(C#Cc3ccc4c(c3)CCO4)cc2OC1 [Example 9, 7-(2,3-Dihydro-benzofuran-5-ylethynyl)-3,3-dimethyl-3,4-dihydro-2H-benzo[b][1,4]dioxepine] | 15.1 µM |
| CCOC(=O)c1ccc(C#Cc2ccc3c(c2)OCC(C)(C)CO3)cn1 [Example 13, 5-(3,3-Dimethyl-3,4-dihydro-2H-benzo[b][1,4]dioxepin-7-ylethynyl)-pyridine-2-carboxylic acid ethyl ester] | 5.41 µM |
| Cn1nnc(-c2ccc(C#Cc3ccc4c(c3)OCC(C)(C)CO4)cc2)n1 [Example 14, 5-[4-(3,3-Dimethyl-3,4-dihydro-2H-benzo[b][1,4]dioxepin-7-ylethynyl)-phenyl]-2-methyl-2H-tetrazole] | 11.2 µM |
| CCOC(=O)c1ccc(OCc2ccc3c(c2)OCC(C)(C)CO3)cc1 [Example 23, 4-(3,3-Dimethyl-3,4-dihydro-2H-benzo[b][1,4]dioxepin-7-ylmethoxy)-benzoic acid ethyl ester] | 0.25 µM |

Now from value to compound:

| IC50 | SMILES |
| --- | --- |
| 42.2 µM | COc1cccc(C#Cc2ccc3c(c2)OCC(C)(C)CO3)c1 [Example 5, 7-(3-Methoxy-phenylethynyl)-3,3-dimethyl-3,4-dihydro-2H-benzo[b][1,4]dioxepine] |
| 1.44 µM | CCOc1ccc(C#Cc2ccc3c(c2)OCC(C)(C)CO3)cc1 [Example 7, 7-(4-Ethoxy-phenylethynyl)-3,3-dimethyl-3,4-dihydro-2H-benzo[b][1,4]dioxepine] |
| 3.11 µM | CCOC(=O)c1cccc(C#Cc2ccc3c(c2)OCC(C)(C)CO3)c1 [Example 15, 3-(3,3-Dimethyl-3,4-dihydro-2H-benzo[b][1,4]dioxepin-7-ylethynyl)-benzoic acid ethyl ester] |
| 0.01 µM | CCCOc1ccc(C#Cc2ccc3c(c2)OCC(C)(C)CO3)cc1 [Example 21, 3,3-Dimethyl-7-(4-propoxy-phenylethynyl)-3,4-dihydro-2H-benzo[b][1,4]dioxepine] |
